Results on 29 sequences are retold here after the supplement of paper PMC11208160.
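Further: IS621 bridge recombinase in Escherichia coli cells against a fixed T5 target plasmid.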

The nature of the data set: recombinant UMI read abundance after kanamycin selection (control-corrected) (log10(CPM+1)); higher = more efficient recombination; extreme values may be limits of the assay; sequences stand for … in AGTGCAGAGAAAATCGGCCAGTTTTCTCTGCCTGCAGTCCGCATGCCGTGGGACCCCTTGGGTTCTAACCTGTTGCCTAGATTTATGCAGCGGACTGCCTTTCTCCCAAAGTGATAAACCGG…AGGTTGGTTTCACT; site = the 11-nt donor. In a few lines: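 Two replicates each of selected and unselected plating were used in this pooled Escherichia coli screen of donor and donor-binding-loop pairs for the IS621 bridge recombinase. Selection was with IPTG (0.07 mM) and kanamycin. Counts of recombinant UMIs, amplified across the donor–target junction, were converted to CPM, averaged, scaled by control-derived factors and reported as log10(CPM+1).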
With “TTAGCAGCATGGACCGGTTTTCCCGGTAATCCGTATTTGTG (site TTAGCCGCTCA)”, the “recombinant UMI read abundance (log10)” value is 0.0121.
The same measure for “TTAGCAGCATGGACCGGTTTTCCCGGTAATCCGTATTTGTG (site TTAGCGGCTCA)”: 0.0104.
As for “TTAGCAGCATGGACCGGTTTTCCCGGTAATCCGTATTTGTG (site TTAGCTGCTCA)”, the figure is 0.00315; as for “TTAGCGGCATGGACCGGTTTTCCCGGTAATCCGTATTTGCT (site TTAGCGGCTAG)”, 1.71.
As for “TTAGCGGCATGGACCGGTTTTCCCGGTAATCCGTATTTGCT (site TTCGCGGCTAG)”, the figure is 0.
As for “TTAGCGGCATGGACCGGTTTTCCCGGTAATCCGTATTTGCT (site TTGGCGGCTAG)”, the “recombinant UMI read abundance (log10)” value worked out at 0.
As for “TTAGCGGCATGGACCGGTTTTCCCGGTAATCCGTATTTGCT (site TTTGCGGCTAG)”, the figure is 0; as for “TTAGCTGCATGGACCGGTTTTCCCGGTAATCCGTATTTGGG (site TTAGCTGCTCA)”, 0.
As for “TTAGCTGCATGGACCGGTTTTCCCGGTAATCCGTATTTGGG (site TTAGCTGCTCC)”, the figure is 0.0113; as for “TTAGCTGCATGGACCGGTTTTCCCGGTAATCCGTATTTGGG (site TTAGCTGCTCG)”, 0.0143.
The same measure for “TTAGCTGCATGGACCGGTTTTCCCGGTAATCCGTATTTGGG (site TTAGCTGCTCT)”: 0; for “TTAGCTGCATGGACCGGTTTTCCCGGTAATCCGTATTTGTG (site ATAGCTGCTCA)”: 0.183.
As for “TTAGCTGCATGGACCGGTTTTCCCGGTAATCCGTATTTGTG (site CTAGCTGCTCA)”, the “recombinant UMI read abundance (log10)” value came out at 0.221.
The same measure for “TTAGCTGCATGGACCGGTTTTCCCGGTAATCCGTATTTGTG (site GTAGCTGCTCA)”: 0.0161.
As for “TTAGCTGCATGGACCGGTTTTCCCGGTAATCCGTATTTGTG (site TAAGCTGCTCA)”, the figure is 0.00653.
As for “TTAGCTGCATGGACCGGTTTTCCCGGTAATCCGTATTTGTG (site TCAGCTGCTCA)”, the figure is 0.0262; as for “TTAGCTGCATGGACCGGTTTTCCCGGTAATCCGTATTTGTG (site TGAGCTGCTCA)”, 0.0117; as for “TTAGCTGCATGGACCGGTTTTCCCGGTAATCCGTATTTGTG (site TTAACTGCTCA)”, 0.0107.
As to “TTAGCTGCATGGACCGGTTTTCCCGGTAATCCGTATTTGTG (site TTACCTGCTCA)”, the “recombinant UMI read abundance (log10)” value is 0.00862.
As for “TTAGCTGCATGGACCGGTTTTCCCGGTAATCCGTATTTGTG (site TTAGATGCTCA)”, the figure is 0.0477; as for “TTAGCTGCATGGACCGGTTTTCCCGGTAATCCGTATTTGTG (site TTAGCAGCTCA)”, 0.00587; as for “TTAGCTGCATGGACCGGTTTTCCCGGTAATCCGTATTTGTG (site TTAGCCGCTCA)”, 0.
The same measure for “TTAGCTGCATGGACCGGTTTTCCCGGTAATCCGTATTTGTG (site TTAGCGGCTCA)”: 0.00865; for “TTAGCTGCATGGACCGGTTTTCCCGGTAATCCGTATTTGTG (site TTAGCTACTCA)”: 0.0282; for “TTAGCTGCATGGACCGGTTTTCCCGGTAATCCGTATTTGTG (site TTAGCTCCTCA)”: 0.0123.
As for “TTAGCTGCATGGACCGGTTTTCCCGGTAATCCGTATTTGTG (site TTAGCTGCTAA)”, the figure is 0.0166; as for “TTAGCTGCATGGACCGGTTTTCCCGGTAATCCGTATTTGTG (site TTAGCTGCTCA)”, 0.543.
As to “TTAGCTGCATGGACCGGTTTTCCCGGTAATCCGTATTTGTG (site TTAGCTGCTCC)”, the “recombinant UMI read abundance (log10)” value was 0.0667.
Turning to “TTAGCTGCATGGACCGGTTTTCCCGGTAATCCGTATTTGTG (site TTAGCTGCTCG)”, the “recombinant UMI read abundance (log10)” value worked out at 0.0153.
